Data from publication PMC9178925 (Biochemical pharmacology, 2022).
Values joined by “and” are separate entries in the source; they are usually repeats but may differ in a detail not shown here. Identical values can stand only once. Like-named read-outs stand apart in the source and are kept apart here.

Tests used:
[1] = biological target: α1β1γ2S GABAAR (Rattus norvegicus, UniProt P15431+P62813); assay type: cell-based; settings: 100 μM (+)-catharanthine, % over control EC5 GABA; mean ± SEM
[2] = biological target: α1β2(D282A)γ2L GABAAR (Rattus norvegicus, UniProt P62813+P63138, D306A); assay type: cell-based, rat (β2 rat or human); settings: β2(D282A)
[3] = biological target: α1β3(M286C)γ2S GABAAR (Rattus norvegicus, UniProt P62813+P63079, M311C); assay: Two-electrode voltage clamp, potentiation of low GABA currents in oocytes; assay type: cell-based; settings: 100 μM (+)-catharanthine, ~EC5 GABA, n = 5 oocytes
[4] = biological target: α1β2(R269A)γ2L GABAAR (Rattus norvegicus, UniProt P62813+P63138, R293A); assay type: cell-based, rat (β2 rat or human); settings: β2(R269A)
[5] = biological target: α2β3γ2S GABAAR (UniProt P47869+P63079); assay: Two-electrode voltage clamp, potentiation of EC5 GABA currents in oocytes; assay type: cell-based, human α2, rat β3 and γ2S
[6] = biological target: α1(Q241L)β2γ2L GABAAR (Rattus norvegicus, UniProt P62813+P63138, Q268L); assay: Two-electrode voltage clamp, potentiation of low GABA currents in oocytes; assay type: cell-based, rat (β2 rat or human)
[7] = biological target: α2β1γ2S GABAAR (UniProt P15431+P47869); assay type: cell-based, human α2, rat β1 and γ2S; settings: 100 μM (+)-catharanthine, % over control EC5 GABA; mean ± SEM
[8] = biological target: α1β2(K279A)γ2L GABAAR (Rattus norvegicus, UniProt P62813+P63138, K303A); assay type: cell-based, rat (β2 rat or human); settings: β2(K279A)
[9] = biological target: α1β2(N265S)γ2S GABAAR (Rattus norvegicus, UniProt P62813+P63138, N289S); assay: Two-electrode voltage clamp, potentiation of low GABA currents in oocytes; assay type: cell-based, rat (β2 rat or human)
[10] = biological target: α1β2γ2S GABAAR (Rattus norvegicus, UniProt P62813+P63138); assay type: cell-based, rat (β2 rat or human)
[11] = biological target: T1, α1β2γ2L GABAAR (Rattus norvegicus, UniProt P62813+P63138); assay: Two-electrode voltage clamp, concentration-response and mechanistic; assay type: cell-based, rat (β2 rat or human)
[12] = system: β2/3-containing GABAARs vs β1-containing GABAARs; assay: GABAAR subtype selectivity of potentiation; assay type: cell-based; settings: low, subsaturating GABA
[13] = biological target: α1β2(K279A+D282A)γ2L GABAAR (Rattus norvegicus, UniProt P62813+P63138, D306A/K303A); assay type: cell-based, rat (β2 rat or human); settings: β2(K279A+D282A)
[14] = biological target: α1β2(N265S)γ2L GABAAR (Rattus norvegicus, UniProt P62813+P63138, N289S); assay type: cell-based, rat (β2 rat or human); settings: β2(N265S)
[15] = system: α2β3γ2S GABAAR; assay: Two-electrode voltage clamp, potentiation of EC5 GABA currents in oocytes; assay type: cell-based, human α2, rat β and γ2S
[16] = biological target: α1β3γ2S GABAAR (Rattus norvegicus, UniProt P62813+P63079); assay type: cell-based
[17] = biological target: T1, α1β2γ2L GABAAR; assay: Functional competition assay; settings: for potentiation of GABA-activated receptors: n = 5 oocytes
[18] = read-out: KCath (estimated affinity of (+)-catharanthine for the resting receptor), low GABA (PA ~0.2), Eq. 1, NCath = 2, mean ± SEM, 5 oocytes
[19] = calculated from cCath, NCath = 2
[20] = low GABA (PA ~0.2), Eq. 1, NCath = 2
[21] = absence of GABA, Hill equation fit
[22] = 100 μM (+)-catharanthine, ~EC5 GABA
[23] = 100 μM (+)-catharanthine, % over control EC5 GABA, mean ± SEM
[24] = 1 μM R(+)-etomidate + 10 μM (+)-catharanthine
[25] = GABA + 3 μM loreclezole + 30 μM (+)-catharanthine

CCC1=C[C@@H]2CN3CCc4c([nH]c5ccccc45)[C@@](C(=O)OC)(C2)[C@@H]13 [(+)-catharanthine, (+)-3,4-didehydrocoronaridine]
(+)-Catharanthine maximal potentiation (%) [1]: 269 ± 42 (4) %
Kd [2, 18]: 7.1 ± 2.8 µM
ΔG [2, 19]: -0.55 ± 0.07 kcal/mol
cCath (ratio of the affinities for the active and resting states) [2, 20]: 0.630±0.039
EC50 ([2]; low GABA, Hill equation fit): 7.7 ± 1.6 µM
nH ([2]; low GABA, Hill equation fit): 1.88±0.39
potentiation of the response to low GABA [3]: 651 ± 115%
Kd [4, 18]: 18.8 ± 3.3 µM
ΔG [4, 19]: -1.53 ± 0.11 kcal/mol
cCath (ratio of the affinities for the active and resting states) [4, 20]: 0.279±0.022
EC50 ([4]; low GABA, Hill equation fit): 9.3 ± 1.2 µM
nH ([4]; low GABA, Hill equation fit): 1.29±0.10
(+)-Catharanthine maximal potentiation (%) ([5]; 100 μM (+)-catharanthine, % over control EC5 GABA, second line printed α2β3γ2S): 728 ± 120 (4) %
(+)-Catharanthine relative potentiation (αxβ2/3γ2S)/(αxβ1γ2S) ([5]; second line printed α2β3γ2S vs α2β1γ2S, 100 μM): 3.5
potentiation of GABA-evoked currents ([6]; 30 μM (+)-catharanthine, 30 μM GABA, n = 6 oocytes): 231 ± 33%
(+)-Catharanthine maximal potentiation (%) [7]: 211 ± 26 (5) %
Kd ([8]; read-out: KCath (estimated affinity of (+)-catharanthine for the resting receptor), direct activation in the absence of GABA (PA,constitutive 0.22), Eq. 1, NCath = 2, 5 oocytes): 17.8 ± 1.6 µM
cCath (ratio of the affinities for the active and resting states) ([8]; absence of GABA, Eq. 1, NCath = 2): 0.421±0.034
EC50 [8, 21]: 13.6 ± 2 µM
nH [8, 21]: 1.08±0.11
ΔG [8, 19]: -1.04 ± 0.10 kcal/mol
potentiation of the response to low GABA [9, 22]: 224 ± 13%
(+)-Catharanthine maximal potentiation (%) [10, 23]: 739 ± 110 (11) %
potentiation of the response to low GABA [10, 22]: 1099 ± 163%
(+)-Catharanthine relative potentiation (αxβ2/3γ2S)/(αxβ1γ2S) ([10]; α1β2γ2S vs α1β1γ2S, 100 μM): 2.7
maximal efficacy [(PAmax/PAmin)-1 × 100] / maximum potentiation ([11]; 2 μM GABA, Hill equation fit, % of control): 341%
potentiation of GABA-evoked currents ([11]; 30 μM (+)-catharanthine, 2 μM GABA, n = 6 oocytes): 372 ± 72%
EC50 ([11]; read-out: EC50 for potentiation, wild-type, 2 μM GABA, Hill equation fit): 13.5 ± 1.8 µM
Kd ([11]; read-out: KCath (estimated affinity of (+)-catharanthine for the resting receptor), wild-type, 2 μM GABA background, fit to Eq. 1, NCath constrained to 2, mean ± SEM, 5 oocytes): 29.4 ± 6 µM
cCath (ratio of the affinities for the active and resting states) ([11]; wild-type, 2 μM GABA background, fit to Eq. 1, NCath constrained to 2): 0.231 and 0.231±0.023
nH (Hill coefficient) ([11]; wild-type, 2 μM GABA, Hill equation fit): 1.66 and 1.66±0.33
ΔG (free energy change to stabilize the active state) ([11]; wild-type, calculated from cCath as NCathRTln(cCath), NCath = 2): -1.76 kcal/mol and -1.76 ± 0.12 kcal/mol
efficacy of potentiation at β2/3-containing relative to β1-containing GABAARs [12]: 2.4–3.5 times
ΔG [13, 19]: −0.19 ± 0.01 kcal/mol and −0.19±0.01nd kcal/mol
cCath (ratio of the affinities for the active and resting states) ([13]; pooled data, best-fit ± standard error of the fit): 0.848±0.010nd
EC50 ([13]; pooled data, Hill equation fit): 15.8 ± 5.9 µM
nH ([13]; pooled data, Hill equation fit): 1.30
Kd [14, 18]: 23.9 ± 2.5 µM
ΔG [14, 19]: -1.12 ± 0.07 kcal/mol
cCath (ratio of the affinities for the active and resting states) [14, 20]: 0.390±0.021
EC50 ([14]; low GABA, Hill equation fit): 17.7 ± 1.4 µM
nH ([14]; low GABA, Hill equation fit): 1.53±0.13
(+)-Catharanthine maximal potentiation (%) ([15]; 100 μM (+)-catharanthine, % over control EC5 GABA, first line printed α2β3γ2S): 691 ± 65 (5) %
(+)-Catharanthine relative potentiation (αxβ2/3γ2S)/(αxβ1γ2S) ([15]; first line printed α2β3γ2S vs α2β1γ2S, 100 μM): 3.3
(+)-Catharanthine maximal potentiation (%) [16, 23]: 646 ± 64 (10) %
potentiation of the response to low GABA ([16]; 100 μM (+)-catharanthine, ~EC5 GABA, n = 6 oocytes): 667 ± 111%
(+)-Catharanthine relative potentiation (αxβ2/3γ2S)/(αxβ1γ2S) ([16]; α1β3γ2S vs α1β1γ2S, 100 μM): 2.4
predicted PA, model with overlapping sites (Eq. 2) [17, 24]: 0.024 ± 0.006
predicted PA, model with unique non-overlapping sites (Eq. 1) [17, 24]: 0.115 ± 0.031
PA of peak response, observed ([17]; 10 μM (+)-catharanthine coapplied with 1 μM R(+)-etomidate, 7 oocytes): 0.086 ± 0.024
potentiation of GABA-activated receptors ([17]; 10 μM (+)-catharanthine, 0.05 μM GABA): 1600 ± 400%
potentiation of the peak response elicited by R(+)-etomidate ([17]; 10 μM (+)-catharanthine, 1 μM R(+)-etomidate, n = 7 oocytes): 160 ± 24%
potentiation of the peak response to pregnanolone ([17]; 10 μM (+)-catharanthine, 2 μM pregnanolone, five oocytes): 2200 ± 400%
potentiation of GABA-activated receptors ([17]; 10 μM (+)-catharanthine, 1–2 μM GABA): 353 ± 68%
PA of the peak response, observed ([17]; 0.2–0.5 μM GABA + 3 μM loreclezole + 30 μM (+)-catharanthine): 0.21 ± 0.13
PA of the peak response ([17]; 0.2–0.5 μM GABA + 30 μM (+)-catharanthine): 0.16 ± 0.11
predicted PA, distinct site model [17, 25]: 0.62 ± 0.17
predicted PA, same site model [17, 25]: 0.19 ± 0.11

NCCCC(=O)O [GABA, γ-aminobutyric acid, reference compound]
PA (probability of being in the active state) of peak response ([6]; 30 μM GABA alone): 0.19 ± 0.05
PA (probability of being in the active state) of peak response ([11]; 2 μM GABA alone, normalized to 1 mM GABA + 50 μM propofol): 0.18 and 0.17 ± 0.02 and 0.15 ± 0.02
PA of peak response ([11]; 10 μM GABA alone, n = 6 oocytes): 0.26 ± 0.03
PA of peak response ([17]; 0.05 μM GABA alone): 0.004 ± 0.001
PA of peak response ([17]; 0.75 μM GABA alone): 0.051 ± 0.018
mean PA of the peak response ([17]; 0.2–0.5 μM GABA alone, n = 7 oocytes): 0.009 ± 0.008
PA of peak response ([17]; 1–2 μM GABA alone): 0.030 ± 0.007

[Cl-].[Cl-].[Zn+2] [ZnCl2]
change of GABA responses (positive = potentiation) ([9]; 10 μM ZnCl2 pre-applied 60 s then co-applied with GABA): +11 ± 1%

Cl/C(=C\n1cncn1)c1ccc(Cl)cc1Cl [loreclezole, reference compound]
potentiation of the responses to low GABA ([9]; 10 μM loreclezole, n = 4 oocytes): 36 ± 6%
potentiation of the responses to low GABA ([10]; 10 μM loreclezole, n = 5 oocytes): 269 ± 46%
EC50 [11]: 3.4 ± 0.6 µM
Kd [11]: 7.1 ± 2 µM
cLor ([11]; 10 μM GABA, Eq. 1, n = 6 oocytes): 0.251 ± 0.049 and 0.251
nH ([11]; loreclezole, 10 μM GABA, Hill equation): 1.27 ± 0.41
potentiation of the peak response to GABA ([17]; 10 μM loreclezole, 0.75 μM GABA): 643 ± 91%
enhancement of the peak response from receptors activated by R(+)-etomidate ([17]; 10 μM loreclezole, 1 μM R(+)-etomidate): 395 ± 48%
PA of the peak response ([17]; 0.2–0.5 μM GABA + 3 μM loreclezole): 0.08 ± 0.05

CC(=O)[C@H]1CC[C@H]2[C@@H]3CC[C@@H]4C[C@H](O)CC[C@]4(C)[C@H]3CC[C@]12C [pregnanolone, 1-[(1S,3aS,3bR,5aR,7R,9aS,9bS,11aS)-7-Hydroxy-9a,11a-dimethylhexadecahydro-1H-cyclopenta[a]phenanthren-1-yl]ethan-1-one, reference compound]
PA of peak response ([17]; 2 μM pregnanolone alone): 0.005 ± 0.002
